In patent publication US9963442B2, “Pyridones as herbicides” (E I DU PONT DE NEMOURS AND COMPANY, priority 2014, dated 2018):

Key:
Assay type in all cases: in vivo
Details in all cases: scale 0 to 100, 0 is no effect, 100 is complete control
[1] = test system: ragweed (common ragweed, Ambrosia elatior); assay: Test C preemergence
How it was run: (§1)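 Surfactant-containing, non-phytotoxic solvent formulation applied either to soil right after sowing (loam/sand) or over the top of emerged plants 2–18 cm tall. Effects were scored visually after 13–15 days, where 0 means no effect and 100 complete control.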

[2] = test system: winter wheat (Triticum aestivum); assay: Test C preemergence
How it was run: as §1

[3] = test system: velvetleaf (Abutilon theophrasti); assay: Test C preemergence
How it was run: as §1

[4] = test system: oilseed rape (Brassica napus); assay: Test C preemergence
How it was run: as §1

[5] = test system: yellow nutsedge (Cyperus esculentus); assay: Test C preemergence
How it was run: as §1

[6] = test system: morningglory (Ipomoea coccinea); assay: Test C preemergence
How it was run: as §1

[7] = test system: barnyardgrass (Echinochloa crus-galli); assay: Test C preemergence
How it was run: as §1

corn (Zea mays) [8] = assay: Test C preemergence
How it was run: as §1

[9] = test system: Italian ryegrass (Lolium multiflorum); assay: Test C preemergence
How it was run: as §1

soybean (Glycine max) = assay: Test C postemergence
Excerpt: (§2) Seeds of plant species selected from blackgrass (Alopecurus myosuroides), Italian ryegrass (Lolium multiflorum), winter wheat (Triticum aestivum), galium (catchweed bedstraw, Galium aparine), corn (Zea mays), large (Lg) crabgrass (Digitaria sanguinalis), giant foxtail (Setaria faberii), johnsongrass (Sorghum halepense), lambsquarters (Chenopodium album), morningglory (Ipomoea coccinea), yellow nutsedge (Cyperus esculentus), pigweed (Amaranthus retroflexus), ragweed (common ragweed, Ambrosia elatior), soybean (Glycine max), barnyardgrass (Echinochloa crus-galli), oilseed rape (Brassica napus), waterhemp (common waterhemp, Amaranthus rudis), and velvetleaf (Abutilon theophrasti) were planted into a blend of loam soil and sand and treated preemergence with test chemicals formulated in a non-phytotoxic solvent mixture which included a surfactant. At the same time, plants selected from these crop and weed species and also chickweed (common chickweed, Stellaria media), kochia (Kochia scoparia), and wild oat (Avena fatua), were planted in pots containing Sunshine Redi-Earth® planting medium comprising spaghnum peat moss, vermiculite, starter nutrients and dolomitic limestone and treated with postemergence applications of test chemicals formulated in the same manner. Plants ranged in height from 2 to 18 cm (1- to 4-leaf stage) for postemergence treatments. Treated plants and controls were maintained in a greenhouse for 13 to 15 days, after which time all species were compared to controls and visually evaluated. Plant response ratings, summarized in Table C, are based on a scale of 0 to 100 where 0 is no effect and 100 is complete control. A dash (-) response means no test result.

[10] = test system: winter wheat (Triticum aestivum); assay: Test C postemergence
Excerpt: as §2

[11] = test system: johnsongrass (Sorghum halepense); assay: Test C postemergence
Excerpt: as §2

[12] = test system: blackgrass (Alopecurus myosuroides); assay: Test C postemergence
Excerpt: as §2

[13] = test system: velvetleaf (Abutilon theophrasti); assay: Test C postemergence
Excerpt: as §2

[14] = test system: yellow nutsedge (Cyperus esculentus); assay: Test C postemergence
Excerpt: as §2

[15] = test system: morningglory (Ipomoea coccinea); assay: Test C postemergence
Excerpt: as §2

[16] = test system: barnyardgrass (Echinochloa crus-galli); assay: Test C postemergence
Excerpt: as §2

corn (Zea mays) [17] = assay: Test C postemergence
Excerpt: as §2

[18] = test system: galium (catchweed bedstraw, Galium aparine); assay: Test C postemergence
Excerpt: as §2

kochia (Kochia scoparia) = assay: Test C postemergence
Excerpt: as §2

[19] = test system: waterhemp (common waterhemp, Amaranthus rudis); assay: Test C postemergence
Excerpt: as §2

[20] = test system: Italian ryegrass (Lolium multiflorum); assay: Test C postemergence
Excerpt: as §2

[21] = test system: giant foxtail (Setaria faberii); assay: Test C postemergence
Excerpt: as §2

## O=c1cccc(Oc2ncc(Cl)cn2)n1-c1ccc(C(F)(F)F)cc1 [Compound 10]
[1]; 16 g ai/ha
  Plant response rating, Ragweed: 35
[1]; 31 g ai/ha
  Plant response rating, Ragweed: 25
[1]; 62 g ai/ha
  Plant response rating, Ragweed: 25
[1]; 125 g ai/ha
  Plant response rating, Ragweed: 65
[2]; 16 g ai/ha
  Plant response rating, Wheat: 0
[2]; 31 g ai/ha
  Plant response rating, Wheat: 0
[2]; 62 g ai/ha
  Plant response rating, Wheat: 5
[2]; 125 g ai/ha
  Plant response rating, Wheat: 5
[3]; 16 g ai/ha
  Plant response rating, Velvetleaf: 0
[3]; 31 g ai/ha
  Plant response rating, Velvetleaf: 20
[3]; 62 g ai/ha
  Plant response rating, Velvetleaf: 40
[3]; 125 g ai/ha
  Plant response rating, Velvetleaf: 55
[4]; 16 g ai/ha
  Plant response rating, Oilseed Rape: 0
[4]; 31 g ai/ha
  Plant response rating, Oilseed Rape: 10
[4]; 62 g ai/ha
  Plant response rating, Oilseed Rape: 70
[4]; 125 g ai/ha
  Plant response rating, Oilseed Rape: 80
[5]; 16 g ai/ha
  Plant response rating, Nutsedge, Yellow: 0
[5]; 31 g ai/ha
  Plant response rating, Nutsedge, Yellow: 0
[5]; 62 g ai/ha
  Plant response rating, Nutsedge, Yellow: 0
[5]; 125 g ai/ha
  Plant response rating, Nutsedge, Yellow: 0
[6]; 16 g ai/ha
  Plant response rating, Morningglory: 0
[6]; 31 g ai/ha
  Plant response rating, Morningglory: 0
[6]; 62 g ai/ha
  Plant response rating, Morningglory: 15
[6]; 125 g ai/ha
  Plant response rating, Morningglory: 55
[7]; 16 g ai/ha
  Plant response rating, Barnyardgrass: 15
[7]; 31 g ai/ha
  Plant response rating, Barnyardgrass: 55
[7]; 62 g ai/ha
  Plant response rating, Barnyardgrass: 75
[7]; 125 g ai/ha
  Plant response rating, Barnyardgrass: 98
Corn (Zea mays) [8]; 16 g ai/ha
  Plant response rating, Corn: 0
Corn (Zea mays) [8]; 31 g ai/ha
  Plant response rating, Corn: 0
Corn (Zea mays) [8]; 62 g ai/ha
  Plant response rating, Corn: 10
Corn (Zea mays) [8]; 125 g ai/ha
  Plant response rating, Corn: 5
[9]; 16 g ai/ha
  Plant response rating, Ryegrass, Italian: 0
[9]; 31 g ai/ha
  Plant response rating, Ryegrass, Italian: 10
[9]; 62 g ai/ha
  Plant response rating, Ryegrass, Italian: 90
[9]; 125 g ai/ha
  Plant response rating, Ryegrass, Italian: 85
Soybean (Glycine max); 16 g ai/ha
  Plant response rating, Soybean: 40
Soybean (Glycine max); 31 g ai/ha
  Plant response rating, Soybean: 40
Soybean (Glycine max); 62 g ai/ha
  Plant response rating, Soybean: 65
Soybean (Glycine max); 125 g ai/ha
  Plant response rating, Soybean: 55
[10]; 16 g ai/ha
  Plant response rating, Wheat: 0
[10]; 31 g ai/ha
  Plant response rating, Wheat: 5
[10]; 62 g ai/ha
  Plant response rating, Wheat: 10
[10]; 125 g ai/ha
  Plant response rating, Wheat: 10
[11]; 16 g ai/ha
  Plant response rating, Johnsongrass: 5
[11]; 31 g ai/ha
  Plant response rating, Johnsongrass: 10
[11]; 62 g ai/ha
  Plant response rating, Johnsongrass: 10
[11]; 125 g ai/ha
  Plant response rating, Johnsongrass: 25
[12]; 16 g ai/ha
  Plant response rating, Blackgrass: 10
[12]; 31 g ai/ha
  Plant response rating, Blackgrass: 10
[12]; 62 g ai/ha
  Plant response rating, Blackgrass: 30
[12]; 125 g ai/ha
  Plant response rating, Blackgrass: 25
[13]; 16 g ai/ha
  Plant response rating, Velvetleaf: 15
[13]; 31 g ai/ha
  Plant response rating, Velvetleaf: 35
[13]; 62 g ai/ha
  Plant response rating, Velvetleaf: 60
[13]; 125 g ai/ha
  Plant response rating, Velvetleaf: 65
[14]; 16 g ai/ha
  Plant response rating, Nutsedge, Yellow: 5
[14]; 31 g ai/ha
  Plant response rating, Nutsedge, Yellow: 10
[14]; 62 g ai/ha
  Plant response rating, Nutsedge, Yellow: 15
[14]; 125 g ai/ha
  Plant response rating, Nutsedge, Yellow: 20
[15]; 16 g ai/ha
  Plant response rating, Morningglory: 50
[15]; 31 g ai/ha
  Plant response rating, Morningglory: 55
[15]; 62 g ai/ha
  Plant response rating, Morningglory: 70
[15]; 125 g ai/ha
  Plant response rating, Morningglory: 75
[16]; 16 g ai/ha
  Plant response rating, Barnyardgrass: 5
[16]; 31 g ai/ha
  Plant response rating, Barnyardgrass: 10
[16]; 62 g ai/ha
  Plant response rating, Barnyardgrass: 25
[16]; 125 g ai/ha
  Plant response rating, Barnyardgrass: 65
Corn (Zea mays) [17]; 16 g ai/ha
  Plant response rating, Corn: 20
Corn (Zea mays) [17]; 31 g ai/ha
  Plant response rating, Corn: 15
Corn (Zea mays) [17]; 62 g ai/ha
  Plant response rating, Corn: 25
Corn (Zea mays) [17]; 125 g ai/ha
  Plant response rating, Corn: 25
[18]; 16 g ai/ha
  Plant response rating, Galium: 45
[18]; 31 g ai/ha
  Plant response rating, Galium: 50
[18]; 62 g ai/ha
  Plant response rating, Galium: 75
[18]; 125 g ai/ha
  Plant response rating, Galium: 80
Kochia (Kochia scoparia); 16 g ai/ha
  Plant response rating, Kochia: 85
Kochia (Kochia scoparia); 31 g ai/ha
  Plant response rating, Kochia: 90
Kochia (Kochia scoparia); 62 g ai/ha
  Plant response rating, Kochia: 90
Kochia (Kochia scoparia); 125 g ai/ha
  Plant response rating, Kochia: 95
[19]; 16 g ai/ha
  Plant response rating, Waterhemp: 75
[19]; 31 g ai/ha
  Plant response rating, Waterhemp: 80
[19]; 62 g ai/ha
  Plant response rating, Waterhemp: 98
[19]; 125 g ai/ha
  Plant response rating, Waterhemp: 98
[20]; 16 g ai/ha
  Plant response rating, Ryegrass, Italian: 5
[20]; 31 g ai/ha
  Plant response rating, Ryegrass, Italian: 5
[20]; 62 g ai/ha
  Plant response rating, Ryegrass, Italian: 10
[20]; 125 g ai/ha
  Plant response rating, Ryegrass, Italian: 20
[21]; 16 g ai/ha
  Plant response rating, Foxtail, Giant: 10
[21]; 31 g ai/ha
  Plant response rating, Foxtail, Giant: 15
[21]; 62 g ai/ha
  Plant response rating, Foxtail, Giant: 10
[21]; 125 g ai/ha
  Plant response rating, Foxtail, Giant: 20
